Data as given in publication PMC4116524, “A virtual screen identified C96 as a novel inhibitor of phosphatidylinositol 3-kinase that displays potent preclinical activity against multiple myeloma in vitro and in vivo” (Oncotarget, 2014).
“Also recorded” adds a separate entry of the source.

Assays:
[1] = biological target: T1, PI3Kα (Homo sapiens, UniProt P42336); assay: Kinase activity in cell-free assay (HotSpot); type: biochemical
T1 construct: purchased Reaction Biology Corp
Experimental: (§1) Kinase activity in the presence of C96 was performed by using the HotSpot technology (Reaction Biology Corp., Malvern, PA, USA). Briefly, kinases (PI3Kα, β, δ, γ, AKT1, 2, 3, and mTOR) and substrates were diluted in reaction buffer. Subsequently, 5 nL of serially diluted C96 (in pure DMSO) was delivered into diluted kinase and substrate mixture by using Echo 550 (LabCyte Inc. Sunnyvale, CA). The reaction was started by adding ^33P-ATP (hot ATP) into the reaction mixture (the final concentration was 10 μM) and stopped after 2 hrs incubation at room temperature. The un-reacted hot ATP was washed away before detection.

[2] = biological target: T2, PI3Kγ (Homo sapiens, UniProt P48736); assay: Kinase activity in cell-free assay (HotSpot); type: biochemical
T2 construct: purchased Reaction Biology Corp
T2 sequence (P48736 whole entry): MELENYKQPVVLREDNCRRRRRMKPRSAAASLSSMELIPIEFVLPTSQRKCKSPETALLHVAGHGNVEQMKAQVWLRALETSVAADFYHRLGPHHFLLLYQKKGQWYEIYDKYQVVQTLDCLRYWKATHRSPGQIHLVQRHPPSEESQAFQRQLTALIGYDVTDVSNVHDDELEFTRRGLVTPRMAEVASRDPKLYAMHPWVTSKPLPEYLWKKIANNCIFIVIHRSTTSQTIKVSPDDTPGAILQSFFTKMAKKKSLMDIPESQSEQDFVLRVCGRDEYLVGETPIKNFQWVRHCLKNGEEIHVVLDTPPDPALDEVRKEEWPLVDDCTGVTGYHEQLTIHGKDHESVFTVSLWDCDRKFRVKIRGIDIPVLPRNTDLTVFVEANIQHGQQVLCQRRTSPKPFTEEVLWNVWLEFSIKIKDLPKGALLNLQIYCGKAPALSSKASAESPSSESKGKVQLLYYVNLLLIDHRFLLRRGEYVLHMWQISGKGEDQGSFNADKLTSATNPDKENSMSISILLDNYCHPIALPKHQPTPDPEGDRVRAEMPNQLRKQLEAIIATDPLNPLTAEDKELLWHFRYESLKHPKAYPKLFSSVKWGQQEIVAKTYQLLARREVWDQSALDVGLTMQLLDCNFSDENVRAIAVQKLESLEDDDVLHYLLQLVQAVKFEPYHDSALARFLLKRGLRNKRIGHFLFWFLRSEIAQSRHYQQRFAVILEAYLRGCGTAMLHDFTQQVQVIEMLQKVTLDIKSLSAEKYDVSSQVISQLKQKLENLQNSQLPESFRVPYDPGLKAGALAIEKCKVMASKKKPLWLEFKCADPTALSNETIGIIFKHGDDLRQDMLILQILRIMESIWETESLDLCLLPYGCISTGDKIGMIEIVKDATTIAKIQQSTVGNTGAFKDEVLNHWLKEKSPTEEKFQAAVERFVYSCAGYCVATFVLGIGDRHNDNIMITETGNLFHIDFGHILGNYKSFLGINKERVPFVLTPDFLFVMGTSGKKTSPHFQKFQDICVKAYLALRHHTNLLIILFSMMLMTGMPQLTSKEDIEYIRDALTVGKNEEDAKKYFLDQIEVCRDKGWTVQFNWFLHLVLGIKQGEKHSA
Experimental: as §1

[3] = biological target: T3, PI3Kδ (Homo sapiens, UniProt O00329); assay: Kinase activity in cell-free assay (HotSpot); type: biochemical
T3 construct: purchased Reaction Biology Corp
T3 sequence (O00329 whole entry): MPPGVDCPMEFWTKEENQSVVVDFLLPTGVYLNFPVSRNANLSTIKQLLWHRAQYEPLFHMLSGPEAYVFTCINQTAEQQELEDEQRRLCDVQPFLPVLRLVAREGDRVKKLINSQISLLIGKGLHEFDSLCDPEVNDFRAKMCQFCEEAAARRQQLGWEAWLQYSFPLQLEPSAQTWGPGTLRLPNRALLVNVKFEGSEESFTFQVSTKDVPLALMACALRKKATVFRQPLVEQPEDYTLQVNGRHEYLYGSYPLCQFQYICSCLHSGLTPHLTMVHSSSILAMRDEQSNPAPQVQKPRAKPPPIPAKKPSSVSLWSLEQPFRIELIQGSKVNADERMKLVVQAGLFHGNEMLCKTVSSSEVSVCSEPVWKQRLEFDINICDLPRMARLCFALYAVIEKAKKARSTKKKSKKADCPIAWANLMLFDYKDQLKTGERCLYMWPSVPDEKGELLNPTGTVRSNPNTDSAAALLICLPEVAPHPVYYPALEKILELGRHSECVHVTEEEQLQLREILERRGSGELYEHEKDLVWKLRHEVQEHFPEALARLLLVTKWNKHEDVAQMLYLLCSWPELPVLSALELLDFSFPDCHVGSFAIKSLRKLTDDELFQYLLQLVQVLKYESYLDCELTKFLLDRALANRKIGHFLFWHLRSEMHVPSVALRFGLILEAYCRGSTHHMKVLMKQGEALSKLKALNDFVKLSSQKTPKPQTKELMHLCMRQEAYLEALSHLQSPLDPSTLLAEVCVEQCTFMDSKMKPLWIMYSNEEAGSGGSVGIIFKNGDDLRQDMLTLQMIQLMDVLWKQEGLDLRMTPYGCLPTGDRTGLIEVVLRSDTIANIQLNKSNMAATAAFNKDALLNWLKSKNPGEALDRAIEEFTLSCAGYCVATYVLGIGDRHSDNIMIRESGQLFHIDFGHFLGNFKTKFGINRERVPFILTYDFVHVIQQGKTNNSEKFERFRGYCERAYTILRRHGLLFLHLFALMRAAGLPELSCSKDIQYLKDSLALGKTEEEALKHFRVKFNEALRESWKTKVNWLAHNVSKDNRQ
T3 sequence (P27986 whole entry partner): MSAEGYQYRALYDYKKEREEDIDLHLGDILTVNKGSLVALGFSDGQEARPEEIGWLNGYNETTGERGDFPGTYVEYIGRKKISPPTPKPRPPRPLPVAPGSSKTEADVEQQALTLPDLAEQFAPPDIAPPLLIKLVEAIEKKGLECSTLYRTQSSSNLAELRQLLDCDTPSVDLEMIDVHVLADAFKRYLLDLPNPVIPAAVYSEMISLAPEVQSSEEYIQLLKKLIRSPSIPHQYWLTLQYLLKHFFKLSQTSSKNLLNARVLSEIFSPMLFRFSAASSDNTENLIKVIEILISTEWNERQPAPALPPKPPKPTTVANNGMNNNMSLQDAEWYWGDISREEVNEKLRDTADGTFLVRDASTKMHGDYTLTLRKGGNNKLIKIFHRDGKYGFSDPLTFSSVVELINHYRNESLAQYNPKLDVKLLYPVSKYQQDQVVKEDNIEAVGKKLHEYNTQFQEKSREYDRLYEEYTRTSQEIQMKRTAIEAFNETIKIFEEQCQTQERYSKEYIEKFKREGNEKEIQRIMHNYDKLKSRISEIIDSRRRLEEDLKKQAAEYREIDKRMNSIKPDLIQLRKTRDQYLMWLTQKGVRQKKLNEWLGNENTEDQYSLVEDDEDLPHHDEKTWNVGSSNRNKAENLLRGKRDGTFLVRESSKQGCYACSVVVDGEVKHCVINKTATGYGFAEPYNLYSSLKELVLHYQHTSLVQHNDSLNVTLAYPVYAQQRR
Experimental: as §1

[4] = biological target: T4, mTOR (Homo sapiens, UniProt P42345); assay: Kinase activity in cell-free assay (HotSpot); type: biochemical
T4 construct: purchased Reaction Biology Corp
Experimental: as §1

[5] = tested on: c-Src phosphorylation in LP1 and JJN3 cells; assay: c-Src phosphorylation, immunoblotting; type: cell-based; details: increasing concentrations, 24 hrs
Experimental: To elucidate this specificity, we first evaluated its effects on IGF-1R because IGF-1R as a receptor tyrosine kinase activates PI3K in the presence of IGF-1. To exclude the potential effects of C96 on IGF-1 signaling, LP1 and JJN3 cells were starved overnight followed by C96 or S14161 treatment for 2 hrs, and IGF-1 stimulation for 15 min. As expected, IGF-1 triggered AKT phosphorylation but it was suppressed by both C96 and the proven PI3K inhibitor S14161 without affecting total AKT expression (Figure 3A). […] Next, we evaluated other kinases including non-receptor kinase c-Src and a PI3K parallel kinase ERK which transduces external cellular signals. Both LP1 and JJN3 cells were treated with C96 at increasing concentrations that inhibited AKT and mTOR activation (Figure 2C).
Figure 3 C96 inhibits AKT but not IGF-1R, ERK or c-Src kinase activation (A) LP1 and JJN3 cells were starved overnight, then treated with 100 (μM of C96 or S14161 for 2 hrs, followed by IGF-1 (100 ng/mL) for 15 min. After incubation, cells were harvested and the expression of p-AKT, p-IGF-1R, total AKT (T-AKT), and IGF-1R proteins were detected by immunoblotting. (B) LP1 and JJN3 were treated with C96 at indicated concentrations for 24 hrs followed by immunoblotting assay for the expression of p-Src, c-Src, p-ERK, and ERK. GAPDH was used as a loading control. […]

[6] = tested on: JJN3 xenograft; assay: Myeloma xenograft study; type: in vivo, nude mice
Experimental: To further evaluate the anti-myeloma efficacy of C96 in vivo, a human multiple myeloma xenograft model was established by subcutaneous injection of JJN3 into nude mice. When these tumors were palpable, mice were randomly divided into two groups (n=5) and one of them were orally administrated C96 (100 mg/kg body weight, 1/10 of the oral LD50), the other one were given the same volume of vehicle on a daily base for continued 16 days. Tumor sizes and body weight were monitored every other day. […] In contrast, the tumors in the vehicle group grew in a steady rate.
Figure 7 C96 delays myeloma tumor growth in a xenograft mouse model (A) JJN3 cells were injected subcutaneously into nude mice with a density of 30 million cells/site/mouse. When tumors were palpable, mice (n=5/group) were orally given C96 (100 mg/kg body weight) in PBS containing 10% Tween 80 and 10% DMSO daily for continuous 16 days. Tumor volumes were monitored every other day. (B) Mouse body weight was monitored every other day. (C) At the end of the experiment, tumor samples from each group were subjected to immunoblotting analysis for the expression levels of p-AKT, T-AKT, p-mTOR and mTOR with specific antibodies. GAPDH was used as a loading control.
JJN3 cells (30 million cells/injection) were inoculated s.c. into the right flanks of nude mice (5-6 weeks old, female, Shanghai Slac Laboratory Animal Co. Ltd., Shanghai). When tumors were palpable, mice were randomly divided into two groups (n=5). One group was orally administrated C96 (100 mg/kg body weight, or 1/10 oral LD50) dissolved in PBS containing 10% Tween 80 and DMSO daily for continued 16 days, another group was received the vehicle only. Tumor sizes were measured every other day with a caliper and calculated according to the formula (V=0.5236a²b, where a is the smallest superficial diameter and b is the largest superficial diameter). Body weight of each mouse was also monitored. At the end of the experiment, mice were sacrificed in a CO2 chamber containing dry ice. Tumor tissues were then excised, weighed, and snap-frozen in liquid nitrogen for further studies. To examine protein expression, tumor tissues were minced and ultrasonicated in the lysis buffer to extract proteins, which were further applied for immunoblotting analyses using specific antibodies against AKT, p-AKT, p-mTOR, mTOR, and GAPDH. This xenograft study was carried out in accordance with The Code of Ethics of the World Medical Association (Declaration of Helsinki) for experiments in animals and it was approved by the Animal Ethics and Welfare Review Board of Soochow University.

[7] = Oral LD50

T1 sequence (P42336 whole entry): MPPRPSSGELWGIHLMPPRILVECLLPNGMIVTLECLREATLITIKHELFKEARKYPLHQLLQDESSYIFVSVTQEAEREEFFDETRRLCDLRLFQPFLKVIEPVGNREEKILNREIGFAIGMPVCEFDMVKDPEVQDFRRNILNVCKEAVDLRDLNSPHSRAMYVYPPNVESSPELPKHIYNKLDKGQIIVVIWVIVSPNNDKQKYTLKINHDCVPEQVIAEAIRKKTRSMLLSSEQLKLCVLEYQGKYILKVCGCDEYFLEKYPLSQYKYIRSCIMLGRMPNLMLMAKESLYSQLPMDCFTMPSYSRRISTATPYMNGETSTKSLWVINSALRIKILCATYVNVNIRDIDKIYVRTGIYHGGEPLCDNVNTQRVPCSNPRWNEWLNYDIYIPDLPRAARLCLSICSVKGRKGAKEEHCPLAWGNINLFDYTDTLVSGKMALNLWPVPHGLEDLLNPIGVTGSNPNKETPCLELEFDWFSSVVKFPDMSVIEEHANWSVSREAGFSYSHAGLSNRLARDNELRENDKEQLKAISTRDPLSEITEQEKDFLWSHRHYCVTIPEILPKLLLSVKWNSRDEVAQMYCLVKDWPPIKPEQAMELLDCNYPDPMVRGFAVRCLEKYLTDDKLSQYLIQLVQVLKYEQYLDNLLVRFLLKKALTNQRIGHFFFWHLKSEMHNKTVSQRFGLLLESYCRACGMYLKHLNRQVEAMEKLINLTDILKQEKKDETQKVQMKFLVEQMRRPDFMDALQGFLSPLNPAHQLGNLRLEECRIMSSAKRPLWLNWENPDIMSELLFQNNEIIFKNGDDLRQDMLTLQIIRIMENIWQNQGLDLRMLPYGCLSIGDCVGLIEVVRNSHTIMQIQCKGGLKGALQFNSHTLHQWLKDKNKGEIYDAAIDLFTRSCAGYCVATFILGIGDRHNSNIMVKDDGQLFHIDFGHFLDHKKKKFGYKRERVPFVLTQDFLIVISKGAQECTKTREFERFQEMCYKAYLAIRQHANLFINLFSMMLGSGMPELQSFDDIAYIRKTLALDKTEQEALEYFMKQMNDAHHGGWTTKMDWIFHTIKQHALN
T1 sequence (P27986 whole entry partner): as the sequence (P27986 whole entry partner) above

## O=C1NC(=O)C(=CC=Cc2cccs2)C(=O)N1 [C96, 5-(3-(2-thienyl)-2-propen-1-ylidene)-2,4,6(1H,3H,5H)-pyrimidinetrione]
[1]
  EC50: ~5 µM
  IC50: 5.41 µM
[2]
  IC50: 116 µM
[3]
  EC50: ~5 µM
  IC50: 7.05 µM
[4]; 300 μM
  enzymatic activity mTOR: higher than 50%
[4]; C96 1.00E-04 M
  mTOR catalytic activity: 101.78%
[4]; C96 1.11E-05 M
  mTOR catalytic activity: 102.93%
[4]; C96 1.23E-06 M
  mTOR catalytic activity: 99.81%
[4]; C96 1.37E-07 M
  mTOR catalytic activity: 100.28%
[4]; C96 1.52E-08 M
  mTOR catalytic activity: 96.95%
[4]; C96 3.00E-04 M
  mTOR catalytic activity: 102.57%
[4]; C96 3.33E-05 M
  mTOR catalytic activity: 100.02%
[4]; C96 3.70E-06 M
  mTOR catalytic activity: 101.74%
[4]; C96 4.12E-07 M
  mTOR catalytic activity: 99.37%
[4]; C96 4.57E-08 M
  mTOR catalytic activity: 99.19%
[4]; cell-free
  IC50 mTOR: not detectable
[5]
  phosphorylation level of c-Src: did not decrease
[6]; 100 mg/kg oral daily, 16-day treatment
  effects on body weight: minimal effects
[6]; 100 mg/kg oral daily, 16 days
  gross toxicity: no gross toxicity
  tumor growth: almost fully suppressed tumor growth; also recorded: delayed MM tumor growth
[6]; 100 mg/kg oral daily, within 16 days
  tumor growth suppression: more than 90%
[6]; tumors excised at end of experiment, immunoblotting
  AKT and mTOR phosphorylation in myeloma tumor tissues: decreased
[7]
  100 mg/kg body weight dose as fraction of the oral LD50: 1/10
